Here are results for one compound from patent US20230406850A1, “CRYSTALLINE FORM OF HETEROCYCLIC COMPOUND, PREPARATION METHOD THEREFOR AND APPLICATION THEREOF” (WUHAN LL SCIENCE AND TECHNOLOGY DEVELOPMENT CO., LTD., priority 2020, published 2023).

Structures are written as SMILES.

Series [1] concerns the target T1, hP2X2/3 (heterodimeric receptors formed by human purinergic P2X receptor subtypes 2 and 3) (Homo sapiens, UniProt P56373+Q9UBL9).
T1 construct: expressed in transfected cells
T1 sequence (P56373 1-397): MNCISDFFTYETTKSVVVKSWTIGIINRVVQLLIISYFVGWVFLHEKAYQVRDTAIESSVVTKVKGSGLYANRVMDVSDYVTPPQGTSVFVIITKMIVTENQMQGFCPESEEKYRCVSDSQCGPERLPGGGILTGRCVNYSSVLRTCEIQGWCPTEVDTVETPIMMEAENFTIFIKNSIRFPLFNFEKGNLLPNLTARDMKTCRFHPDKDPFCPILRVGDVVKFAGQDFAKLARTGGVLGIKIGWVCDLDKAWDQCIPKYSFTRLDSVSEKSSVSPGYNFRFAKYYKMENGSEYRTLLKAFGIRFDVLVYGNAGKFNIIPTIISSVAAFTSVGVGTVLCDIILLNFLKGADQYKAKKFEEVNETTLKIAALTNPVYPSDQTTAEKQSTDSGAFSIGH
T1 sequence (Q9UBL9 1-471): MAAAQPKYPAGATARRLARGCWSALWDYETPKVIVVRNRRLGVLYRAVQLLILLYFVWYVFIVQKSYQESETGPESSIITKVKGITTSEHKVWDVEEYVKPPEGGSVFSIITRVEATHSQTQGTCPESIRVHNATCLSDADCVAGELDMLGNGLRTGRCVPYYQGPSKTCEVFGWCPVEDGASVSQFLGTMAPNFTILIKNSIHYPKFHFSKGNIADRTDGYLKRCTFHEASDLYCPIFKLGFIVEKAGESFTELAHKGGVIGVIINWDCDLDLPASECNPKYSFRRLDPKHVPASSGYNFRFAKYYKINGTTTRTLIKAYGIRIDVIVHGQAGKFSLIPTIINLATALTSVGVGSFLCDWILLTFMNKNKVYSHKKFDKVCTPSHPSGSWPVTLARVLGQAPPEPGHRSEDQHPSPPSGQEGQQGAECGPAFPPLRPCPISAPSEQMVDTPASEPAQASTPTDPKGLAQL
Put plainly: FLIPR intracellular calcium assay, hP2X2/3 in HEK293 cells (selectivity). In kind it is cell-based. How it is done:
18-24 hours before the FLIPR experiment, cells were seeded into 96 wells (25000 cells/well) ata density of 250000 cells/mL and incubated overnight in a cell culture incubator. […] 75 μL 1 mM Fluo-4 AM fluorescent dye (Thermo, F14202) was added to each well, and the dye load was incubated for 1.0 hour at 37° C. Then, the 96-well plate was washed once with buffer, and 50 μL of buffer containing test compound or vehicle was added to each well, and it was incubated at room temperature for 30 minutes. […] Then agonist (BZ-ATP (Sigma, B6396) at a final concentration of 5 μM) or vehicle (ultrapure water) was added at 50 μL/well, the fluorescence value was measured at 1-second intervals for 2 minutes, and finally the output fluorescence was counted analysis.
In general terms: Calcium assays in cells follow changes in intracellular calcium, usually with a dye or a luminescent sensor.

For series [2], the system named is Dunkin Hartley guinea pigs, citric acid induced cough. Briefly: Simple citric acid cough model. In kind it is in vivo, guinea pig. Particulars: 30 mg/kg. How it is done: Male Dunkin Hartley guinea pigs (300-350 g) were placed in the animal atomization box, the door of the atomization box was closed, and the ultrasonic atomizer (Guangdong Yuehua) was opened at the same time, at the maximum atomization amount (about 2 mL/min) 17.5% citric acid gas was filled with the atomization box, which was continuously atomized for 20 seconds, and the cough performance of the animals was continuously observed within 10 min after the atomization started. During the 10-minute observation period, manual counting of coughs was required, and the number of coughs was judged according to the guinea pig's coughing posture, such as abdominal twitching, mouth opening, head down hooking, etc., as well as the sound of coughing, the number of coughs in the first 5 minutes and the number of coughs in the first 10 minutes were recorded, and the cough incubation period of guinea pigs was also recorded, that is, the time from citric acid induction to the first cough as well as the sound of coughing.

Series [3] deals with T2, hP2X3 (human purinergic P2X receptor subtype 3) (Homo sapiens, UniProt P56373).
T2 construct: expressed in transfected cells
T2 sequence (P56373 1-397): T1 sequence (P56373 1-397)
Briefly: FLIPR intracellular calcium assay, hP2X3 in HEK293 cells. Particulars: agonist BZ-ATP 2.5 μM, read-out: P2X3 IC50. In kind it is cell-based. Here is the method: 18-24 hours before the FLIPR experiment, cells were seeded into 384 wells (10,000 cells/well) at a density of 400,000 cells/mL and incubated overnight in a cell culture incubator. […] 10 μL of test compound (dissolved at 10 mM in DMSO and serially diluted with buffer) or vehicle was then added to each well and allowed to equilibrate for 30 min at room temperature.

A further series relates to SD rats. Put plainly: Taste disorder test by double bottle method. The format is in vivo, rat. Particulars: for Quinine/tap water * 100%: single intraperitoneal injection, 15 minutes. The source says:
SPF male SD rats (6-8 weeks) received 3 days of adaptive drinking water training immediately after storage, and the specific training content was that animals were kept in a single cage, and two bottles of water (both common drinking water) were placed in each cage, and during the adaptive training, water treatment was forbidden all night (the drinking water bottle was removed), and drinking water was given again at 8:30 am to 5:30 pm, and then this cycle lasted for 3 days, and the two bottles of water were changed every day, and during the whole adaptive training period, animals were ate freely. All animal water bottles were removed 20 hours before the formal experiment, and water was banned until the time of the experiment. During the formal experiment, all animals were randomly divided into groups, and the test compound or vehicle was given before the water supply was renewed, and the drug was given by single intraperitoneal injection, and the administration time was determined according to the Tmax of the test compound. Then, the animals were placed in a single cage, and given two bottles of drinking water, one bottle of ordinary drinking water and one bottle of 0.3 mM tonic water, and the water consumption of animals was observed within 15 minutes, and the quinine water consumption/ordinary water consumption was statistically analyzed, with positive compound 2 as the positive control of taste disorder.

Series [4] has as its system Dunkin Hartley guinea pigs, ATP-citric acid induced cough. Briefly: ATP-citric acid cough model. In kind it is in vivo, guinea pig. How it is done:
Male Dunkin Hartley guinea pigs (300-400 g) were placed in a whole-body volume scanning box for 3 to 5 minutes, and then subjected to ATP atomization for 2 minutes, with an interval of 3 minutes, followed by citric acid atomization for 5 minutes, and all atomization rates were about 300 μL/min. From citrate acid atomization, cough times and cough latency of animals within 10 min were recorded. During the 10-minute observation period, manual counting of coughs was required, and the number of coughs was judged according to the guinea pig's coughing posture, such as abdominal twitching, mouth opening, head down hooking, etc., as well as the sound of coughing, the number of coughs in the first 10 minutes were recorded, and the cough incubation period of guinea pigs was also recorded.
Animals were divided into vehicle group, dextromethorphan (63 mg/kg) positive group, AF-219 (30 mg/kg) positive group and compound 172 (3, 10, 30 mg/kg) administration group of Embodiment. All compounds were administered orally, except dextromethorphan, which was administered 40 minutes before ATP-citric acid exposure, and the rest compounds were […].

A word on the IC50: it is the concentration needed to halve the response being measured. As for `COC(=O)N1CCO[C@@H](Cc2c(-c3c(F)cc(S(N)(=O)=O)cc3F)nc3cc(Cl)ccn23)C1` [Compound 172, methyl (S)-2-((7-chloro-2-(2,6-difluoro-4-sulfamoylphenyl)imidazo[1,2-a]pyridin-3-yl)methyl)morpholine-4-carboxylate], the IC50 is > 60000 nM in series [1] (HEK293 cells, agonist BZ-ATP 5 μM) and 0.7 nM in series [3]. In series [1] (P2X2/3 versus P2X3), the Selectivity multiple is reported as >85714. Besides, the efficacy in words result in series [2] is recorded as “comparable to the efficacy of positive compound”. Besides, the “Quinine/tap water * 100%” value was 7.05% in the series on SD rats (5 mg/kg), 7.41% in the series on SD rats (10 mg/kg) and 8.66% in the series with SD rats (20 mg/kg). For the same compound, in the series with SD rats (5, 10 and 20 mg/kg), the “effect on quinine/water ratio in words” value was “no obvious effect on the quinine/water ratio of rats”. The entries for the “Cough suppression rate vs Vehicle” value in series [4] (3 mg/kg oral), in series [4] (10 mg/kg oral) and in series [4] (30 mg/kg oral) were 30.80%, 51.20% and 52.80%, respectively. In addition, the “effect on number of coughs compared with the vehicle group, in words” value in series [4] (guinea pig, in vivo) was “significantly reduce the number of coughs”.
